Like-named read-outs stand apart in the source and are kept apart here. Blank lines part the entries; values can stand above or below the molecule they belong to.
Assays:
[1] = Peff in cm sec-1 from PAMPA assays; ref Bennion, Be [13]; cited from earlier work
NHR2 = target: T1, NHR2 (Homo sapiens, UniProt Q06455); assay: Isothermal titration calorimetry (ITC) of HEB fragment with NHR2; conditions: 25°C, one-site binding model
T1 construct: The N-terminal residues from Q485 to D495, T519, and the C-terminal residues from Y544 to K552; 6His (N, cleaved yes); SUMO (N, cleaved yes); made in house; host or cells: E. coli Rosetta (DE3)pLysS
T1 sequence (Q06455 337-404): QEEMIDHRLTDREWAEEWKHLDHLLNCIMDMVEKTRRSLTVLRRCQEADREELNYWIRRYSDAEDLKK
Protocol: The NHR2 domain was overexpressed and purified, and the resulting material yielded homogeneous, monodisperse species in solution. The sample was homogenous as analyzed by size exclusion chromatography (SEC) (Fig. 2A), SDS-PAGE (Fig. S1), and dynamic light scattering (DLS) (Fig. S3). The oligomeric state of purified NHR2 was assessed by analytical ultracentrifugation (AUC) (Fig. S4). The sedimentation profiles of NHR2 show a single major species with a sedimentation coefficient (S value) of 3.07, which corresponds to the molecular weight of 37.3 kDa. This value is in agreement with the calculated molecular weight of an NHR2 tetramer of 34.2 kDa. […] The weight percent contribution of the tetramer in 35 µM of NHR2 is 94% as obtained by integration of the continuous sedimentation coefficient distribution function. To check the function of the purified NHR2, we performed isothermal titration calorimetry (ITC) with the HEB fragment of E proteins (HEB (176–200)).
Figure S5. NHR2 interaction with E proteins (HEB (176-200)) by isothermal titration calorimetry (ITC). Titration of
600 μM HEB (176-200) peptide into a 53 μM NHR2 solution and resulting heat change are shown in the upper panel. The
ITC measurements were performed at 25°C using a MicroCal ITC200 (Malvern Instruments Ltd., United Kingdom)
calorimeter. Buffer conditions were 50 mM sodium phosphate, 50 mM sodium chloride pH 8. […]

[2] = pKa value determination by 1H NMR; type: physicochemical
Protocol: Sodium 2,2-dimethyl-2-silapentane-5-sulfonate (DSS) was used for chemical shift referencing and calibrated to a zero ppm value in each case. […] Then the pKa was calculated by using the chemical shifts of the protonated and unprotonated forms at the respective pH and fitting to the Henderson-Hasselbalch equation[25] (Fig. 6B).
1D ^1H-NMR experiments were performed using 256 scans for each sample. ^1H chemical shift values were extracted for the reporter protons using TopSpin 3.2 (Bruker BioSpin). The pKa was calculated using the chemical shifts of the protonated and unprotonated forms and their corresponding mole fraction values applying the Henderson-Hasselbalch equation as explained by Gift et al.[25]. The data were processed and plotted with the Origin software (OriginLab Corporation, USA).

[3] = Kinetic solubility in PBS; type: physicochemical; conditions: kinetic from dmso stock
Protocol: in a cut-off concentration of 200 µM and a final solvent content of 1% DMSO. The test
solutions (triplicates) were put on a filter plate and were shaken protected from light at 300 rpm
at room temperature for 1.5 hours, followed by centrifugation at 500 x g for 3 minutes. 200 µl
of the filtrate were mixed with 100 µl ACN containing the ISTD as described in Sample

Plasma stability = type: in vitro ADME; conditions: mouse plasma, 0–240 min, 37 °C
Protocol: (§1) For plasma stability assay, working solutions of the test and reference item were diluted f r o m the stock solutions in the appropriate solvent (Table S3) to reach working solutions of 50-fold […]
(§2) and propantheline (reference item for low plasma stability) were tested at a final concentration of 10 µM. The final solvent content in the test item incubations was 0.5% DMSO, while in the propantheline incubations, no organic solvent was added.
(§3) For chemical stability assay, working solutions of the test and reference items were diluted from the stock solutions in the appropriate solvent (Table S3) to reach working solutions of 50- […]
(§4) item and Omeprazole (reference item for low chemical stability) were tested at a final concentration of 10 µM. The final solvent content in the test item incubations was 0.5% DMSO.
(§5) For the hepatic stability assay, working solutions of the test and reference items were diluted from the stock solutions in the appropriate solvent (Table S3) to reach working solutions of a 200-fold higher strength than the intended final concentrations. In a second step, working solutions were further diluted in incubation medium to reach 10-fold concentrated starting

Hepatocyte stability = type: in vitro ADME; conditions: mouse hepatocytes
Protocol: Working solutions of the test and reference items were diluted from the stock solutions in the
incubation medium to reach 10-fold concentrated starting solutions. The final test
concentrations were 5 µM with a solvent content of 0.5% DMSO or 1% ACN in all test item
and reference item incubations, respectively. 7.44 compound was dissolved 20 mM in DMSO
Primary hepatocytes from CD-1 mice (pooled, male) were thawed
according to the instructions of the manufacturer. The incubation samples were composed of
0.2 x 10^6 cells/well in 225 µL incubation medium and 25 µL test item solution (50 µM in
incubation medium), resulting in a final start concentration of 5 µM. Samples were taken from
the suspension cultures after 0, 15, 30, 60, and 120 minutes of incubation and processed for LC-
MS analysis as described in Sample preparation section.
Positive control incubations were performed using 7-ethoxycoumarin as substrate. Metabolic
turnover rates were measured at 0 and 120 minutes of incubation. Aliquotes were taken from
the incubations for sample preparation and analysis. Hepatocyte enzyme activity was assessed
in terms of 7-ethoxycoumarin turnover, i.e., loss of 7-ethoxycoumarin.
Negative controls were performed to observe non-metabolic degradation processes; i.e. test
Negative control incubations were performed
in line with all experiments using incubation medium with test and reference item in the absence
of hepatocytes. Samples were taken from the incubations at 0 and 120 minutes and processed
as described below (in Sample preparation section).

[4] = Chemical stability in PBS; type: physicochemical; conditions: pH 7.4, 0–4 h
Protocol: as §1, §2, §3, §4, §5

HEB 176-200 = target: T2, HEB 176-200 (Homo sapiens, UniProt Q99081); assay: ITC
T2 chain: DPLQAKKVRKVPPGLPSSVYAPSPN

MST = target: the molecule itself; assay: MST

Molecule: CN(C)CCCN1c2ccccc2Sc2ccccc21 [promazine]
log Peff/PAMPA P0-1 [1]: -4.88

Molecule: Cn1c(=O)c2[nH]cnc2n(C)c1=O [theophylline]
log Peff/PAMPA P0-1 [1]: -5.91

Molecule: O/N=C/c1cc[n+](C[n+]2ccc(/C=N/O)cc2)cc1 [methoxime (MMB4), methoxime]
log Peff/PAMPA P0-1 [1]: -9.25

Molecule: C[n+]1ccccc1/C=N/O [pralidoxime (P2-PAM), pralidoxime]
log Peff/PAMPA P0-1 [1]: -7.52

Molecule: CC(=O)[C@H]1CC[C@H]2[C@@H]3CCC4=CC(=O)CC[C@]4(C)[C@H]3CC[C@]12C [progesterone]
log Peff/PAMPA P0-1 [1]: -4.94

binding enthalpy ΔH (NHR2): -15 ± 6 kcal/mol | Kd (NHR2; read-out: dissociation constant KD): 30 ± 4 µM
Molecule: HEB (176–200): HEB fragment of E proteins, known to interact with the NHR2 domain (DPLQAKKVRKVPPGLPSSVYAPSPN; UniProt Q99081 176-200, looked up, fragment)

Molecule: NC(=O)c1cc[n+](COC[n+]2ccccc2/C=N/O)cc1 [asoxime (HI-6), asoxime]
log Peff/PAMPA P0-1 [1]: -11.16

Molecule: CN(C)CCCN1c2ccccc2Sc2ccc(Cl)cc21 [chlorpromazine]
log Peff/PAMPA P0-1 [1]: -5.26

pKa ([2]; sodium phosphate buffer with NaCl and DMSO-d6, reporter proton H2, read-out: pKa of the carboxylic group): 3.99 ± 0.01 | pKa ([2]; sodium phosphate buffer with NaCl and DMSO-d6, reporter proton H3, read-out: pKa of the carboxylic group): 3.93 ± 0.01 | pKa ([2]; sodium phosphate buffer with NaCl and DMSO-d6, summary value, read-out: pKa): ~3.9 | solubility kinetic at […] ([3]; 99% PBS, 1% DMSO, pH 7.4, aqueous buffer): 177 ± 8 µM | solubility kinetic at […] ([3]; PBS with 1% DMSO, aqueous buffer, PBS, pH 7.4, read-out: Kinetic solubility): 60 µg/mL | Plasma stability (Plasma stability): No degradation | hepatocyte CLint at 5 µM (Hepatocyte stability; male, CD-1, primary hepatocytes (pooled, suspension), read-out: Hepatocyte stability, intrinsic clearance rate (CLint)): 2.5 µL/min/1e6 cells | half-life at 5 µM (Hepatocyte stability; male, CD-1, primary hepatocytes (pooled, suspension), read-out: half-life time): > 2 h | compound remaining (Hepatocyte stability; after 120 min): 73.8% | Chemical stability in PBS [4]: No degradation
Molecule: O=C(CC(C(=O)O)c1ccc2c(c1)OCO2)c1ccc2c(c1)OCO2 (stereo not drawn) [7.44]

Kd (HEB 176-200): 30 µM
B1: NHR2 domain of RUNX1/ETO 485-552 (protein)
chain: KMERTVAEAKRQAAEDALAVINQQEDSSESCWNCGRKASETCSGCNTARYCGSFCQHKDWEKHHHICG

B2: NHR2 domain of RUNX1/ETO (dimer) 485-552 (protein)
chain: KMERTVAEAKRQAAEDALAVINQQEDSSESCWNCGRKASETCSGCNTARYCGSFCQHKDWEKHHHICG
Kd (MST): 1.6 µM

Source: PMC9391460, “Biophysical and pharmacokinetic characterization of a small-molecule inhibitor of RUNX1/ETO tetramerization with anti-leukemic effects” (Scientific Reports, 2022)
